From PMC8717366, “Synthesis and Pharmacological Characterization of Visabron, a Backbone Cyclic Peptide Dual Antagonist of α4β1 (VLA-4)/α9β1 Integrin for Therapy of Multiple Sclerosis” (JACS Au, 2021)
Numbered stars: 1 amine (or outer) side, 2 acyl side, 3 side chain; on linkers, the order of the positions; unused ones are H or OH. Bridge positions count the residues as written; N and C are the ends. Square brackets hold non-standard residues; d marks the D form. Peptide text beside a SMILES is read from it. N(2-Aminoethyl)Gly = O=C(CN(CCN[*:3])[*:1])[*:2]; CO = O=C([*:1])[*:2]

Columns and labels:
[1] = Immunogenicity, antibody titer by ELISA in BALB/c mice; assay type: in vivo, BALB/c male mice; details: 40 days, Figure 8
Description: Figure 8 Antibody titer test in BALB/c mice, 40 days post intraperitoneal administration with natalizumab (18 mg/kg), visabron c (2–2) (150 mg/kg) alone, and administered together with Complete Freund’s Adjuvant (visabron c (2–2) + CFA), as compared to preimmune control serum. The results represent the mean ± SEM (n = 6) of optical absorbance (OD 490 nm) in ELISA. *p ≤ 0.01 compared to control.
BALB/c male mice, aged 60 days (22 gr) were divided into three groups each containing six mice. The mice were immunized intraperitoneal with 0.5 mL of Visabron c (2–2) (150 mg/kg), 0.25 mL Visabron c (2–2) (150 mg/kg) + 0.25 mL of Freund‘s complete adjuvant, and 0.25 mL natalizumab (18 mg/kg). After 14 days of the first inoculation, the mice received a booster with 0.5 mL of the preparations mentioned above. To verify the presence of antibodies against visabron c (2–2) or natalizumab, the serum collected from mice tail blood was tested 40 days after the first inoculation by indirect ELISA using visabron c (2–2) or natalizumab antigens immobilized to the plate (25 μg per well, diluted in 20 mM carbonate buffer, pH 9.6 overnight incubated at 4 °C). […] The reaction was stopped with 12.5% H2SO4, and absorbance was measured at 490 nm. The results were considered significant when the absorbance was at least two times higher than that obtained with the preimmune serum.

[2] = test system: Jurkat cell migration across TNFα-stimulated HUVEC; test: Jurkat transmigration across TNFα-stimulated HUVEC monolayer; assay type: cell-based, human; details: at 24 h; 1 mg/mL of antagonist; Figure 2B,C
Description: Figure 2 Inhibitory effects of visabron c (4–4) on adhesion (A) and transmigration (B, C) of Jurkat cells through the monolayer of TNFα-activated HUVEC. (A) HUVEC were cultured on 96 well plates to 90% confluence in EGM-2 complete media. TNF-α (10 ng/mL) was added to each well for 16 h. Jurkat cells were labeled with calcein-AM ([…]) by 1 h incubation at 37 °C. After three washes, Jurkat cells (1 × 10^5 cells per mL) were mixed with appropriate concentrations of visabron or 10 μM visabres (inset) in EGM-2 media without FBS and supplements (growth factors) and incubated for 15 min at room temperature. […] Cell cultures extracts were measured using the fluorescence plate reader. […] Chambers were incubated at 37 °C, and measurement of fluorescence was performed at the indicated time points using a fluorescence plate reader with a set up bottom measurement option and using FITC filters. […]
trans-Endothelial leukocyte migration was assessed as follows: HUVEC cells were plated onto collagen type IV (5 μg/mL) coated polycarbonate inserts (Transwell, Costar, Cambridge, MA; diameter, 6.5 mm; pore size, 8 μm for a 24-well plate) in serum-containing endothelial cell growth medium and allowed to grow to confluence over 72 h. […] The medium and all washes were pooled, and the fluorescence in each well was quantified with a SPECTRAFluor Plus plate reader at λex = 485 nm and λem = 530 nm. […]

Compound | Antibody production (ELISA vs preimmune serum) ([1]; 150 mg/kg intraperitoneal alone) | Antibody production (ELISA vs preimmune serum) ([1]; 150 mg/kg intraperitoneal together with Freund's complete adjuvant) | Inhibition of Jurkat migration across TNFα-stimulated HUVEC [2]
CSCC[C@@H]1NC(=O)[C@H]([C@@H](C)O)NC(=O)CN(C(=O)[C@@H](N)CCCCN)CCNC(=O)NCCN(CC(=O)N[C@@H](CC(C)C)C(N)=O)C(=O)[C@H](CC(=O)O)NC(=O)[C@H](CC(C)C)NC1=O [visabron c (2–2)] (H-K[N(2-Aminoethyl)Gly]TMLD[N(2-Aminoethyl)Gly]L-NH2; linker 2-7 via CO) | did not induce antibody production | did not induce antibody production | –
natalizumab: clinical-grade monoclonal antibody anti-α4β1 produced by Biogen Co. [reference compound] | – | – | similar
